According to patent US5710130A, “Antithrombotic agents” (Eli Lilly and Company, priority 1995, dated 1998):
Structures can show the parent of a compound that is named as a salt.

Legend:
thrombin = details: Bajusz et al., J. Med. Chem. 33, 1729-1735 (1990); cited from earlier work
[1] = early clinical studies, Simoons et al., Circulation 90, I-231 (1994); cited from earlier work
Human Thrombin = Human Thrombin (Homo sapiens, UniProt P00734); assay: Inhibition of thrombin amidase activity (Kass), chromogenic substrate; type: biochemical; details: mean Kass over a range of concentrations; substrate N-benzoyl-Phe-Val-Arg-p-nitroanilide
factor Xa = factor Xa (Homo sapiens, UniProt P00742); assay: Kass against factor Xa, chromogenic substrate; type: biochemical; details: substrate N-Benzoyl-Ile-Glu-Gly-Arg-p-nitroanilide
Chain of factor Xa (P00742 235-488 limits assumed): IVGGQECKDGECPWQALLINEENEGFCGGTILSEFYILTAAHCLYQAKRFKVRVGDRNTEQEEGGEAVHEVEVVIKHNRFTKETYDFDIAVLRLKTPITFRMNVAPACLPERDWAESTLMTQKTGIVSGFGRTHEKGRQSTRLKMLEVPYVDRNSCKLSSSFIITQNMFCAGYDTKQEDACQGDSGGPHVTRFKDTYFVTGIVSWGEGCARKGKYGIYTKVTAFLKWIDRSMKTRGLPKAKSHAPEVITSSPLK
Chain of factor Xa (P00742 41-179 partner limits assumed): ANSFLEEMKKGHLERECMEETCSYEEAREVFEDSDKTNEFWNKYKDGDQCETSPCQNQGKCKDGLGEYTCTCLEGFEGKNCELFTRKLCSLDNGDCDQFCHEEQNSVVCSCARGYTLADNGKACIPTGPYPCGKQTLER

human plasma [2] = assay: Human plasma anticoagulation, thrombin time (TT); type: biochemical; details: concentration required to double thrombin time, linear extrapolation
Summary of the method: (§1)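 Compound was spiked over a wide concentration range into citrated human plasma, and clotting times were read on a coagulation instrument. PT was started with saline plus Thromboplastin-C. APTT used 120 s preincubation with Actin, then 0.02M CaCl2. TT used saline plus bovine thrombin (10 NIH units/mL). Doubling concentrations were obtained by linear extrapolation.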

human plasma [3] = assay: Human plasma anticoagulation, activated partial thromboplastin time (APTT); type: biochemical; details: concentration required to double APTT, linear extrapolation
Summary of the method: as §1

human plasma [4] = assay: Human plasma anticoagulation, prothrombin time (PT); type: biochemical; details: concentration required to double PT, linear extrapolation
Summary of the method: as §1

[5] = biological target: T1, activated protein C (aPC) (Homo sapiens, UniProt P04070); assay: Inhibition of activated protein C (aPC), chromogenic substrate; type: biochemical; details: statement in words
T1 construct: made in house
T1 sequence (P04070 212-450 limits assumed): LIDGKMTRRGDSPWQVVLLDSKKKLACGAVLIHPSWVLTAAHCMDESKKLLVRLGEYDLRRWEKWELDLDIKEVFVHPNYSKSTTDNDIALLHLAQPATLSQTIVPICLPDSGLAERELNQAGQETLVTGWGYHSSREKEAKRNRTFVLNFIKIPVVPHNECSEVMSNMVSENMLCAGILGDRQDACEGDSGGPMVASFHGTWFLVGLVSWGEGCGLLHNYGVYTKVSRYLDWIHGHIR
T1 sequence (P04070 43-197 partner limits assumed): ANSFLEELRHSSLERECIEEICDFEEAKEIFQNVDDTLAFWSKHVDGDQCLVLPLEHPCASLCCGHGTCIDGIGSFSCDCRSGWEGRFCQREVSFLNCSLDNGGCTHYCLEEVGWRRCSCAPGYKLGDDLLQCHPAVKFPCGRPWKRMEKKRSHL
Method: By substantially following the procedures described above for human thrombin, and using other human blood coagulation system serine proteases and proteases of the fibrinolytic system with the appropriate chromogenic substrates, identified below, selectivity of the compounds of the present invention with respect to the coagulation factor serine proteases and with respect to the fibrinolytic system serine proteases are evaluated as well as their substantial lack of interference with serine proteases of the fibrinolytic system. Thrombin inhibitors preferably should spare fibrinolysis induced by urokinase, tissue plasminogen activator (t-PA) and streptokinase. This would be important to the therapeutic use of such agents as an adjunct to streptokinase, t-PA or urokinase thrombolytic therapy and to the use of such agents as an endogenous fibrinolysis-sparing (with respect to t-PA and urokinase) antithrombotic agent. In addition to the lack of interference with the amidase activity of the fibrinolytic proteases, such fibrinolytic system sparing can be studied by the use of human plasma clots and their lysis by the respective fibrinolytic plasminogen activators.
Human factors X, Xa, IXa, XIa, and XIIa are purchased from Enzyme Research Laboratories, South Bend, Ind.; human urokinase from Leo Pharmaceuticals, Denmark; and recombinant activated Protein C (aPC) is prepared at Eli Lilly and Co. substantially according to U.S. Pat. No. 4,981,952. Chromogenic substrates: N-Benzoyl-Ile-Glu-Gly-Arg-p-nitroanilide (for factor Xa); N-Cbz-D-Arg-Gly-Arg-p-nitroanilide (for factor IXa assay as the factor Xa substrate); Pyroglutamyl-Pro-Arg-p-nitroanilide (for Factor XIa and for aPC); H-D-Pro-Phe-Arg-p-nitroanilide (for factor XIIa); and Pyroglutamyl-Gly-Arg-p-nitroanilide (for urokinase); are purchased from KabiVitrum, Stockholm, Sweden, or from Midwest Biotech, Fishers, Ind.. Bovine trypsin is purchased from Worthington Biochemicals, Freehold, N.J., and human plasma kallikrein from Kabi Vitrum, Stockholm, Sweden. […]

Row | inhibition of activated protein C (aPC) [5] | Structure (SMILES) | direct inhibition of thrombin (thrombin) | Human Plasma Anticoagulation 2x Clotting time TT (human plasma [2]) | Human Plasma Anticoagulation 2x Clotting time APTT (human plasma [3]) | Human Plasma Anticoagulation 2x Clotting time PT (human plasma [4]) | other results
1 |  | CC(C)(C)OC(=O)N[C@H](Cc1ccccc1)C(=O)N1CCC[C@H]1C(=O)N[C@H](C=O)CCCNC(=N)N [Boc-D-Phe-Pro-Arg-H] | potent direct inhibition |  |  |  | 
2 |  | CN[C@H](Cc1ccccc1)C(=O)N1CCC[C@H]1C(=O)N[C@H](C=O)CCCNC(=N)N.O=S(=O)(O)O [D-MePhe-Pro-Arg-H sulfate] |  |  |  |  | anticoagulant in man [1]: is an anticoagulant in man
3 |  | CN[C@H](Cc1ccccc1)C(=O)N1CCC[C@H]1C(=O)N[C@H](C=O)CCCNC(=N)N [D-MePhe-Pro-Arg-H] | potent direct inhibition |  |  |  | 
4 |  | N=C(N)NCCC[C@@H](C=O)NC(=O)[C@@H]1CCCN1C(=O)[C@H](N)Cc1ccccc1 [D-Phe-Pro-Arg-H] | potent direct inhibition |  |  |  | 
5 |  | CCS(=O)(=O)N[C@H](Cc1ccccc1)C(=O)N1CCC[C@H]1C(=O)NCCc1cccc(N=C(N)N)c1.Cl [Example 37, EtSO2 -D-Phe-Pro-m-NHCH2 CH2 C6 H4 NHC(NH)NH2.HCl] |  | > 9,000 ng/mL | > 9,000 ng/mL | > 9,000 ng/mL | Kass Human Thrombin (Human Thrombin): 0.02 × 10^6 (L/mole); Kass Xa (factor Xa): < 0.009 × 10^6 (L/mole)
6 | very weak inhibition | N=C(N)c1ccc(CNC(=O)[C@@H]2CCCN2C(=O)[C@@H](CC2CCCCC2)NCC(=O)O)nc1 [Example 66, N-(carboxymethyl)-D-cyclohexylalanyl-N-[[5-(aminoiminomethyl)pyridin-2-yl]methyl]-L-prolinamide hydrochloride] |  | 7.9 ng/mL | 180 ng/mL | 270 ng/mL | 
7 | very weak inhibition | Cl.Cl.Cl.N=C(N)c1ccc(CNC(=O)[C@@H]2CCCN2C(=O)[C@@H](CC2CCCCC2)NCC(=O)O)nn1 [Example 69, N-(carboxymethyl)-D-cyclohexylalanyl-N-[[6-(aminoiminomethyl)pyridazin-3-yl]methyl]-L-prolinamide tri-hydrochloride] |  | 5 ng/mL | 110 ng/mL | 220 ng/mL | Kass Human Thrombin (Human Thrombin): 340 × 10^6 (L/mole)

Row | Structure (SMILES) | inhibition of activated protein C (aPC) [5] | direct inhibition of thrombin (thrombin) | Human Plasma Anticoagulation 2x Clotting time TT (human plasma [2]) | Human Plasma Anticoagulation 2x Clotting time APTT (human plasma [3]) | Human Plasma Anticoagulation 2x Clotting time PT (human plasma [4]) | other results
8 | N=C(N)C1=CNC(CNC(=O)[C@@H]2CCCN2C(=O)[C@@H](CC2CCCCC2)NCC(=O)O)CC1 (stereo partly drawn) [Example 68, N-(carboxymethyl)-D-cyclohexylalanyl-N-[[5-(aminoiminomethyl)-1,2,3,4-tetrahydropyridin-2-yl]methyl]L-prolinamide hydrochloride] | very weak inhibition |  | 4 ng/mL | 49 ng/mL | 190 ng/mL | 
